# Data from ChEMBL document CHEMBL1287781, “Novel lipophilic 7H-pyrido[1,2,3-de]-1,4-benzoxazine-6-carboxylic acid derivatives as potential antitumor agents: improved synthesis and in vitro evaluation” (Bioorg Med Chem, 2010).
# Activity calls are given as the source filed them. The calls are words filed in the database; no cut-off is given here.
# Columns and labels:
# [1] = Chemical stability of the compound in phosphate buffer at pH 7.4 after 7 days; type: physicochemical; settings: read-out: Stability
# MCF7 [2] = test: Anticancer activity against human MCF7 after 3 to 5 days by MTT assay; type: functional, cell-based
# A549 [3] = test: Anticancer activity against human A549 after 5 days by MTT assay; type: functional, cell-based; settings: A549, 120 h
# LoVo [4] = test: Anticancer activity against human LoVo cells after 5 days by MTT assay; type: functional, cell-based; settings: 120 h
# A549 [5] = test: Anticancer activity against human A549 after 3 to 5 days by MTT assay; type: functional, cell-based
# PC-3 [6] = test: Anticancer activity against human PC3 after 5 days by MTT assay; type: functional, cell-based; settings: PC-3, 120 h
# MCF7 [7] = test: Anticancer activity against human MCF7 after 5 days by MTT assay; type: functional, cell-based; settings: MCF7, 120 h
# U-373MG ATCC [8] = test: Anticancer activity against human U373MG after 3 to 5 days by MTT assay; type: functional, cell-based
# LoVo [9] = test: Anticancer activity against human LoVo cells after 3 to 5 days by MTT assay; type: functional, cell-based
# PC-3 [10] = test: Anticancer activity against human PC3 after 3 to 5 days by MTT assay; type: functional, cell-based
# [11] = Anticancer activity against human U373MG after 5 days by MTT assay; type: functional, cell-based, U-373MG ATCC; settings: U373 MG, 120 h
# [12] = Toxicity in ip dosed B6D2F1 mouse after 28 days; type: organism-based; settings: in vivo
# U-373MG ATCC [13] = test: Antimigratory activity against human U373MG at 1 uM after 6 days by phase-contrast microscopy; type: functional, cell-based
# U-373MG ATCC [14] = test: Antimigratory activity against human U373MG at 0.1 uM after 6 days by phase-contrast microscopy; type: functional, cell-based
# MCF7 [15] = test: Anticancer activity against human MCF7 by sulforhodamine B assay; type: functional, cell-based
# A549 [16] = test: Anticancer activity against human A549 by sulforhodamine B assay; type: functional, cell-based
Compound,remaining at 168 h [1] [%],Activity (MCF7 [2]),IC50 (A549 [3]) [µM],IC50 (LoVo [4]) [µM],Activity (A549 [5]),IC50 (PC-3 [6]) [µM],IC50 (MCF7 [7]) [µM],Activity (U-373MG ATCC [8]),Activity (LoVo [9]),Activity (PC-3 [10]),IC50 [11] [µM],MTD at 672 h [12] [mg/kg],Activity (U-373MG ATCC [13]),Activity (U-373MG ATCC [14]),IC50 (MCF7 [15]) [µM],IC50 (A549 [16]) [µM]
CCCCCCCCNC(=O)c1cn2c3c(c(N4CCN(C)CC4)c(F)cc3c1=O)OC[C@@H]2C,100,Dose-dependent effect,2.2,0.8,Dose-dependent effect,1.5,2.1,Dose-dependent effect,Dose-dependent effect,Dose-dependent effect,2.3,,,,,
CO/N=C(/CN1CCN(c2cc3c(cc2F)c(=O)c(C(=O)O)cn3C2CC2)CC1)c1ccc(Cl)s1,,,,,,,2.9,,,,,,,,,
CCCCCC(=O)OCOC(=O)c1cn2c3c(c(N4CCN(C)CC4)c(F)cc3c1=O)OC[C@@H]2C,,,235,162,,207,183,,,,199,> 80,,,,
CCCCCCCCCCCCCCNC(=O)c1cn2c3c(c(N4CCN(C)CC4)c(F)cc3c1=O)OC[C@@H]2C,> 98,,5,3,,3,5,,,,3,,,,,
C[C@H]1COc2c(N3CCN(C)CC3)c(F)cc3c(=O)c(C(=O)O)cn1c23 [LEVOFLOXACIN],,Dose-dependent effect,70,67,Dose-dependent effect,238,622,Dose-dependent effect,Dose-dependent effect,Dose-dependent effect,188,,,,,
CCCCNC(=O)c1cn2c3c(c(N4CCN(C)CC4)c(F)cc3c1=O)OC[C@@H]2C,> 97,,46,24,,30,55,,,,113,,,,,
CCCCCCCCCCCCCC(=O)OCOC(=O)c1cn2c3c(c(N4CCN(C)CC4)c(F)cc3c1=O)OC[C@@H]2C,,,617,21,,71,6,,,,8,,,,,
CCCCCCCCCCCCCCCNC(=O)c1cn2c3c(c(N4CCN(C)CC4)c(F)cc3c1=O)OC[C@@H]2C,,,8,6,,5,15,,,,7,,,,,
CCCCCCCCCC(=O)OCOC(=O)c1cn2c3c(c(N4CCN(C)CC4)c(F)cc3c1=O)OC[C@@H]2C,,,> 1000,> 1000,,> 1000,> 1000,,,,> 1000,> 80,,,,
CCCCCCCCCCCCNC(=O)c1cn2c3c(c(N4CCN(C)CC4)c(F)cc3c1=O)OC[C@@H]2C,,,5,3,,5,10,,,,5,,,,,
CCCCCCCCCCNC(=O)c1cn2c3c(c(N4CCN(C)CC4)c(F)cc3c1=O)OC[C@@H]2C,,,3,3,,3,5,,,,3,,,,,
CCCCCCCNC(=O)c1cn2c3c(c(N4CCN(C)CC4)c(F)cc3c1=O)OC[C@@H]2C,,,3,1,,4,5,,,,3,,,,,
CCCCCCCC(=O)OCOC(=O)c1cn2c3c(c(N4CCN(C)CC4)c(F)cc3c1=O)OC[C@@H]2C,> 90,,289,209,,230,238,,,,243,> 80,,,,
CCCCCCCCCCCCCCCCCC(=O)OCOC(=O)c1cn2c3c(c(N4CCN(C)CC4)c(F)cc3c1=O)OC[C@@H]2C,,,593,4,,100,12,,,,0.9,,inactive,inactive,,
C[C@H]1COc2c(N3CCN(C)CC3)c(F)cc3c(=O)c(-c4nc5ccc([N+](=O)[O-])cc5s4)cn1c23,,,,,,,,,,,,,,,> 10,> 10
CCCC(=O)OCOC(=O)c1cn2c3c(c(N4CCN(C)CC4)c(F)cc3c1=O)OC[C@@H]2C,> 92,,3,5,,31,35,,,,40,,,,,
CCCCCCCCCCCCCCCC(=O)OCOC(=O)c1cn2c3c(c(N4CCN(C)CC4)c(F)cc3c1=O)OC[C@@H]2C,> 93,,46,6,,56,8,,,,4,,,,,
CCCCCCNC(=O)c1cn2c3c(c(N4CCN(C)CC4)c(F)cc3c1=O)OC[C@@H]2C,100,,6,5,,12,16,,,,4,,,,,
CCCCCCCCCCCC(=O)OCOC(=O)c1cn2c3c(c(N4CCN(C)CC4)c(F)cc3c1=O)OC[C@@H]2C,> 91,,65,0.3,,86,0.3,,,,0.2,,inactive,inactive,,
